# Data: patent publication US12240862B2, “Inhibitors of peptidylarginine deiminases” (Gilead Sciences, Inc., priority 2020, dated 2025)
# Target: T1, human PAD4 (Homo sapiens, UniProt Q9UM07)
# T1 construct: human PAD4 (NM_012387), A2P663, was PCR amplified; His-SUMO (N, cleaved yes); made in house; host or cells: E. coli BL21(DE3)
# Experiment: In vitro PAD4 BAEE biochemical assay
# Details: human PAD4, BAEE substrate; 5 nM PAD4, 2 mM calcium chloride, 3 mM BAEE; geometric mean of multiple experiments
# How it was run: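 Ammonia generated from BAEE serves as the readout, measured by o-phthalaldehyde after EDTA termination. Final conditions: 5 nM human PAD4 (SUMO tag cleaved), 2 mM CaCl2, 3 mM BAEE, pH 7.6 MOPS buffer, 25 °C for 2 h following a 30-min compound preincubation.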
# T1 sequence (Q9UM07 2-663): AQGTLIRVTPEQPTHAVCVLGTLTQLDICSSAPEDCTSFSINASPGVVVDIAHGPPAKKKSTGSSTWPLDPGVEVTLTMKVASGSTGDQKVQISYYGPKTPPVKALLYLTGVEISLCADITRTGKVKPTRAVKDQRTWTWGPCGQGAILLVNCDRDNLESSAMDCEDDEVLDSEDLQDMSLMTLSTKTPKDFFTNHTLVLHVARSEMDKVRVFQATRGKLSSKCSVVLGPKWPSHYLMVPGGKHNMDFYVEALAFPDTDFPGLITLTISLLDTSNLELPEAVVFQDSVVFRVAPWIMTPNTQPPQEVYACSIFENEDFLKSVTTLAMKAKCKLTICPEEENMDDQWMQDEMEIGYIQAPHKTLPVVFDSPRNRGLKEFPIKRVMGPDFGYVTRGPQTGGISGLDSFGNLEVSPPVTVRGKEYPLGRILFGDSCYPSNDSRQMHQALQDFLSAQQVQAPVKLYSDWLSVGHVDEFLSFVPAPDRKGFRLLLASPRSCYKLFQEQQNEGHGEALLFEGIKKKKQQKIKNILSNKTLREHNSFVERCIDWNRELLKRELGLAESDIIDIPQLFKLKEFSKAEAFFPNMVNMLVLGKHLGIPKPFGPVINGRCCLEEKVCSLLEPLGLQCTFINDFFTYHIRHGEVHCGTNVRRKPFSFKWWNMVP
row,Structure (SMILES),IC50 [nM]
1,"COc1cc(C(=O)N2[C@H]3CC[C@@H]2[C@H](N)C3)cc2nc(-c3cc4ccc(C(C)(C)O)nc4n3CC3CC3)c(C)n12 [Example 574, [(1~{R},2~{R},4~{S})-2-amino-7-azabicyclo [2.2.1]heptan-7-yl]-[2-[1-(cyclopropylmethyl)-6-(2-hydroxypropan-2-yl)pyrrolo [2,3-b]pyridin-2-yl]-5-methoxy-3-methylimidazo[1,2-a]pyridin-7-yl]methanone]",110
2,"COc1cc(C(=O)N2[C@@H]3CC[C@@H](N)[C@H]2CC3)cc2nc(-c3cc4ccc(N(C(F)F)S(C)(=O)=O)nc4n3CC3CC3)c(CC3CC3)n12 [Example 403, ~{N}-[2-[7-[(1~{R},2~{R}, 5~{R})-2-amino-8-azabicyclo[3.2.1]octane-8-carbonyl]-3-(cyclopropylmethyl)-5-methoxyimidazo [1,2-a]pyridin-2-yl]-1-(cyclopropylmethyl)pyrrolo [2,3-b]pyridin-6-yl]-~{N}-(difluoromethyl) methanesulfonamide]",754
3,"Cc1cc(C(=O)N2CCC[C@@H](N)C2)cc2nc(-c3cc4ccc(N(C(F)F)S(C)(=O)=O)nc4n3CC3CC3)c(C)n12 [Example 426, ~{N}-[2-[7-[(3~{R})-3-aminopiperidine-1-carbonyl]-3,5-dimethylimidazo [1,2-a]pyridin-2-yl]-1-(cyclopropylmethyl)pyrrolo [2,3-b]pyridin-6-yl]-~{N}-(difluoromethyl) methanesulfonamide]",125
4,"Cc1c(-c2cc3ccc(N(C(F)F)S(C)(=O)=O)nc3n2CC2CC2)nc2cc(C(=O)N3[C@@H]4CC[C@@H](N)[C@H]3CC4)ccn12 [Example 401, ~{N}-[2-[7-[(1~{R},2~{R}, 5~{R})-2-amino-8-azabicyclo[3.2.1]octane-8-carbonyl]-3-methylimidazo [1,2-a]pyridin-2-yl]-1-(cyclopropylmethyl)pyrrolo [2,3-b]pyridin-6-yl]-~{N}-(difluoromethyl) methanesulfonamide]",136
5,"COc1cc(C(=O)N2[C@H]3CC[C@@H]2[C@H](N)C3)cc2nc(-c3cc4ccc([C@@H](C)NC(=O)C(C)(O)C5CC5)nc4n3CC3CC3)c(C)n12 (some centres unmarked) [Example 92, ~{N}-[(1~{R})-1-[2-[7-[(1~ {R},2~{R},4~{S})-2-amino-7-azabicyclo[2.2.1]heptane-7-carbonyl]-5-methoxy-3-methylimidazo [1,2-a]pyridin-2-yl]-1-(cyclopropylmethyl)pyrrolo [2,3-b]pyridin-6-yl]ethyl]-2-cyclopropyl-2-hydroxypropanamide]",59.7
6,"COc1cc(C(=O)N2[C@H]3CC[C@@H]2[C@H](N)C3)cc2nc(-c3cc4ccc([C@@H](C)NC(=O)NCc5cccnc5)nc4n3CC3CC3)c(C)n12 [Example 226, 1-[(1~{R})-1-[2-[7-[(1~{R},2~{R},4~{S})-2-amino-7-azabicyclo[2.2.1]heptane-7-carbonyl]-5-methoxy-3-methylimidazo [1,2-a]pyridin-2-yl]-1-(cyclopropylmethyl)pyrrolo [2,3-b]pyridin-6-yl]ethyl]-3-(pyridin-3-ylmethyl)urea]",42.3
7,"COc1cc(C(=O)N2CCC[C@@H](N)C2)cc2nc(-c3cc4ccc(OC5CCN(C)C5=O)nc4n3CC3CC3)c(C)n12 (some centres unmarked) [Example 623, 3-[2-[7-[(3~{R})-3-aminopiperidine-1-carbonyl]-5-methoxy-3-methylimidazo[1,2-a]pyridin-2-yl]-1-(cyclopropylmethyl)pyrrolo [2,3-b]pyridin-6-yl]oxy-1-methylpyrrolidin-2-one]",131
8,"COc1cc(C(=O)N2[C@H]3CC[C@@H]2[C@H](N)C3)cc2nc(-c3cc4ccc(C(C)(C)CC(=O)N5CC(F)(F)C5)nc4n3CC3CC3)c(C)n12 [Example 538, 3-[2-[7-[(1~{R},2~{R}, 4~{S})-2-amino-7-azabicyclo[2.2.1]heptane-7-carbonyl]-5-methoxy-3-methylimidazo[1,2-a]pyridin-2-yl]-1-(cyclopropylmethyl)pyrrolo [2,3-b]pyridin-6-yl]-1-(3,3-difluoroazetidin-1-yl)-3-methylbutan-1-one]",175
9,"COc1cc(C(=O)N2CCC3(CCCN3)CC2)cc2nc(-c3cc4ccc(N(C(F)F)S(C)(=O)=O)nc4n3CC3CC3)c(C)n12 [Example 342, ~{N}-[1-(cyclopropylmethyl)-2-[7-(1,8-diazaspiro[4.5]decane-8-carbonyl)-5-methoxy-3-methylimidazo[1,2-a]pyridin-2-yl]pyrrolo[2,3-b]pyridin-6-yl]-~{N}-(difluoromethyl) methanesulfonamide]",14100
10,"COc1cc(C(=O)N2[C@H]3CC[C@@H]2[C@H](N)C3)cc2nc(-c3cc4ccc([C@@H](C)NC(=O)N5CCO[C@H](C)C5)nc4n3CC3CC3)c(C)n12 [Example 210, (2~{R})-~{N}-[(1~{R})-1-[2-[7-[(1~{R},2~{R}, 4~{S})-2-amino-7-azabicyclo[2.2.1]heptane-7-carbonyl]-5-methoxy-3-methylimidazo [1,2-a]pyridin-2-yl]-1-(cyclopropylmethyl)pyrrolo [2,3-b]pyridin-6-yl]ethyl]-2-methylmorpholine-4-carboxamide]",39.7
11,"COc1cc(C(=O)N2[C@H]3CC[C@@H]2[C@H](N)C3)cc2nc(-c3cc4ccc([C@H]5CCNC(=O)C5)nc4n3CC3CC3)c(C)n12 [Example 554, (4~{S})-4-[2-[7-[(1~{R}, 2~{R},4~{S})-2-amino-7-azabicyclo[2.2.1]heptane-7-carbonyl]-5-methoxy-3-methylimidazo [1,2-a]pyridin-2-yl]-1-(cyclopropylmethyl)pyrrolo [2,3-b]pyridin-6-yl]piperidin-2-one]",81
12,"COc1cc(C(=O)N2[C@H]3CC[C@@H]2[C@H](N)C3)cc2nc(-c3cc4ccc([C@@H](C)NC(=O)C5(CO)CC5)nc4n3CC3CC3)c(C)n12 [Example 128, ~{N}-[(1~{R})-1-[2-[7-[(1~{R},2~{R},4~{S})-2-amino-7-azabicyclo[2.2.1]heptane-7-carbonyl]-5-methoxy-3-methylimidazo [1,2-a]pyridin-2-yl]-1-(cyclopropylmethyl)pyrrolo [2,3-b]pyridin-6-yl]ethyl]-1-(hydroxymethyl) cyclopropane-1-carboxamide]",35.8
13,"COc1nn(C)cc1C(=O)N[C@H](C)c1ccc2cc(-c3nc4cc(C(=O)N5[C@H]6CC[C@@H]5[C@H](N)C6)cc(OC)n4c3C)n(CC3CC3)c2n1 [Example 26, ~{N}-[(1~{R})-1-[2-[7-[(1~{R},2~{R},4~{S})-2-amino-7-azabicyclo [2.2.1]heptane-7-carbonyl]-5-methoxy-3-methylimidazo [1,2-a]pyridin-2-yl]-1-(cyclopropylmethyl)pyrrolo[2,3-b]pyridin-6-yl]ethyl]-3-methoxy-1-methylpyrazole-4-carboxamide]",151
14,"COc1cc(C(=O)N[C@H]2CNCC[C@@H]2OC)cc2nc(-c3cc4ccc(N(C(F)F)S(C)(=O)=O)nc4n3CC3CC3)c(C)n12 [Example 285, 2-[1-(cyclopropylmethyl)-6-[difluoromethyl (methylsulfonyl)amino]pyrrolo[2,3-b]pyridin-2-yl]-5-methoxy-~ {N}-[(3~{S},4~{S})-4-methoxypiperidin-3-yl]-3-methylimidazo[1,2-a] pyridine-7-carboxamide]",14000
